Some results are limits rather than exact numbers.

One series concerns Pyrenophora teres. Briefly: In vivo test on Pyrenophora teres (barley net blotch). The conditions noted are these: 288 h, barley plants (Express variety), grading 12 days after contamination, good (at least 70%) or total protection. The method, then: In Vivo Test on Pyrenophore teres (Barley Net Blotch)
The active ingredients tested are prepared by homogenisation in a mixture of acetone/tween/DMSO, then diluted with water to obtain the desired active material concentration. Barley plants (Express variety) in starter cups, sown on a 50/50 peat soil-pozzolana substrate and grown at 12° C., are treated at the 1-leaf stage (10 cm tall) by spraying with the active ingredient prepared as described above. Plants, used as controls, are treated with the mixture of acetone/tween/DMSO/water not containing the active material.
After 24 hours, the plants are contaminated by spraying them with an aqueous suspension of Pyrenophora teres spores (12,000 spores per ml). The spores are collected from a 12-day-old culture. The contaminated barley plants are incubated for 24 hours at about 20° C. and at 100% relative humidity, and then for 12 days at 80% relative humidity.

Series [1] is described as follows: logP by HPLC on reversed-phase column (C 18), EEC Directive 79/B31 Annex V.A8, methods A and B. Particulars: linear gradient 10% to 90% acetonitrile; for chromatographic logP: reversed-phase HPLC column (C 18). The format is physicochemical. The method, then:
Calibration was carried out using unbranched alkan-2-ones (having 3 to 16 carbon atoms) with known logP values (determination of the logP values by the retention times using linear interpolation between two successive alkanones).

In a further series the test system is Alternaria solani. As to the kind of experiment: In vivo test on Alternaria solani (tomato leaf spot), preventive spray. Particulars: 168 h, tomato young plants, evaluated 7 days after inoculation, good (at least 70%) to total protection. The method, then:
In Vivo Test on Alternaria Solani (Tomato Leaf Spot) [table] To produce a suitable preparation of active compound, 1 part by weight of active compound is mixed with the stated amounts of solvent and emulsifier, and the concentrate is diluted with water to the desired concentration. Young plants are sprayed with the preparation of active compound at the stated rate of application. After the spray coating has dried on, the plants are inoculated with an aqueous spore suspension of Alternaria solani. The plants remain for one day in an incubation cabinet at approximately 20° C. and a relative atmospheric humidity of 100%. Then the plants are placed in an incubation cabinet at approximately 20° C. and a relative atmospheric humidity of 96%. The test is evaluated 7 days after the inoculation. Under these conditions, good (at least 70%) to total protection is observed at a dose of 500 ppm with the following compounds 110, 143, 160, 175, 176, 178, 179, 180, 186, 187, 189, 192, 196, 198, 203, 204, 205, 209, 210, 212, 214, 215 and 652.

Series [2] deals with Mycosphaerella graminicola. Briefly: In vivo test on Mycosphaerella graminicola (wheat leaf spot). Particulars: Zymoseptoria tritici, wheat plants (Scipion variety), grading 21 to 28 days after contamination, good (at least 70%) or total protection, read-out: protection (% of efficacy). The procedure: In vivo Test on Mycosphaerella graminicola (Wheat Leaf Spot)
The active ingredients tested are prepared by homogenisation in a mixture of acetone/tween/DMSO, and then diluted with water to obtain the desired active material concentration.
Wheat plants (Scipion variety), sown on a 50/50 peat soil-pozzolana substrate in starter cups and grown at 12° C., are treated at the 1-leaf stage (10 cm tall) by spraying with the active ingredient prepared as described above.
Plants, used as controls, are treated with the mixture of acetone/tween/DMSO/water not containing the active material.
After 24 hours, the plants are contaminated by spraying them with an aqueous suspension of Mycosphaerella graminicola spores (500 000 spores per ml). The spores are collected from a 7-day-old culture. The contaminated wheat plants are incubated for 72 hours at 18° C. and at 100% relative humidity, and then for 21 to 28 days at 90% relative humidity.
Grading (% of efficacy) is carried out 21 to 28 days after the contamination, in comparison with the control plants.

For another series, the system named is Puccinia recondita. As to the kind of experiment: In vivo test on Puccinia recondita f. sp. tritici (wheat brown rust). Particulars: 240 h, wheat plants (Scipion variety), grading 10 days after contamination, good (at least 70%) or total protection. The method, then: In vivo Test on Puccinia reconditef. Sp. tritici (Wheat Brown Rust)
The active ingredients tested are prepared by homogenisation in a mixture of acetone/tween/DMSO, then diluted with water to obtain the desired active material concentration. Wheat plants (Scipion variety) in starter cups, sown on 50/50 peat soil-pozzolana substrate and grown at 12° C., are treated at the 1-leaf stage (10 cm tall) by spraying with the active ingredient prepared as described above. Plants, used as controls, are treated with the mixture of acetone/tween/DMSO/water not containing the active material.
After 24 hours, the plants are contaminated by spraying the leaves with an aqueous suspension of Puccinia recondita spores (100,000 spores per ml). The spores are collected from a 10-day-old contaminated wheat and are suspended in water containing 2.5 ml/of tween 80 10%. The contaminated wheat plants are incubated for 24 hours at 20° C. and at 100% relative humidity, and then for 10 days at 20° C. and at 70% relative humidity. Grading is carried out 10 days after the contamination, in comparison with the control plants.

Where [3] appears, read: HPLC reversed-phase C 18, method A: 43° C., 0.1% aqueous phosphoric acid, acetonitrile.
[4] abbreviates: HPLC reversed-phase C 18, method B: 40° C., 0.1% aqueous formic acid and acetonitrile.
Where [5] appears, read: LogP method B: HPLC reversed-phase C 18, 40° C., 0.1% aqueous formic acid / acetonitrile.

As to `CCc1nn(C)c(F)c1C(=O)N(C1CC1)S(=O)(=O)c1ccc(C(C)(C)C)cc1` [Compound 381], the pest or weed control at 500 ppm in the series with Pyrenophora teres is no less than 70%.
Usually chromatographic logP stands for lipophilicity estimated from chromatographic retention. `Cc1nn(C)c(C)c1C(=O)N(C1CC1)S(=O)(=O)c1ccccc1O` [Compound 215] gave a chromatographic logP in series [1] (setting [3]) of 2.17. The same compound showed a pest or weed control at 500 ppm with Alternaria solani of no less than 70%.
For the compound `CCCCOc1ccc(S(=O)(=O)N(C(=O)c2c(C)nn(C)c2F)C2CC2)cc1` [Compound 263], the pest or weed control at 500 ppm (with Pyrenophora teres; in series [2]) was no less than 70% in each case.
In turn, `Cn1nc(C(F)(F)F)c(C(=O)N(C2CC2)S(=O)(=O)c2cccc(O)c2O)c1F` [Compound 357] displayed a chromatographic logP in series [1] (setting [4]) of 3.3. Moreover, the pest or weed control at 500 ppm with Pyrenophora teres is no less than 70%.
Take `CCCCOc1ccc(S(=O)(=O)N(C(=O)c2cn(C)nc2OC)C2CC2)cc1` [Compound 262]: the pest or weed control at 500 ppm (in the series on Puccinia recondita; in the series on Pyrenophora teres; in series [2]) was no less than 70% throughout.
With `COc1nn(C)cc1C(=O)N(C1CC1)S(=O)(=O)c1ccc(Oc2ccc(Cl)cc2)cc1Cl` [Compound 501], the pest or weed control at 500 ppm (in the series on Pyrenophora teres; in series [2]) was no less than 70% each time.
Take `CCc1nn(C)c(F)c1C(=O)N(C1CC1)S(=O)(=O)c1ccccc1Br` [Compound 374]: the chromatographic logP in series [1] (setting [4]) came out at 2.7. Moreover, the pest or weed control at 500 ppm (in the series on Pyrenophora teres; in series [2]) was no less than 70% each time.
In series [1] (setting [5]), `CCOc1nn(C)cc1C(=O)N(C1CC1)S(=O)(=O)c1ccc(Oc2ccc(OC)cc2)c(O)c1` [Compound 531] returned a chromatographic logP of 3.8. Besides, the pest or weed control at 500 ppm (in the series on Puccinia recondita; in the series with Pyrenophora teres; in series [2]) was no less than 70% each time.
Turning to `Cc1cccc(Oc2ccc(S(=O)(=O)N(C(=O)c3cn(C)nc3C(F)F)C3CC3)cc2)c1` [Compound 254], the pest or weed control at 500 ppm (with Pyrenophora teres; in series [2]) was no less than 70% throughout.
`CC1=C(C(=O)N(C2CC2)S(=O)(=O)c2ccccc2O)OCCS1` [Compound 652] had a chromatographic logP in series [1] (LogP method A: HPLC reversed-phase C 18, 43° C., 0.1% aqueous phosphoric acid / acetonitrile) of 2.78. In the series on Alternaria solani, the pest or weed control at 500 ppm was no less than 70%.
`COc1nn(C)cc1C(=O)N(C1CC1)S(=O)(=O)c1ccc(Oc2ccccc2)cc1` [Compound 143]: the pest or weed control at 500 ppm in the series with Alternaria solani is no less than 70%.
`COc1nn(C)cc1C(=O)N(C1CC1)S(=O)(=O)c1ccc(Oc2ccc(C(F)(F)F)cc2)cc1` [Compound 268] returned a pest or weed control at 500 ppm with Pyrenophora teres of no less than 70%.
As to `CCOc1nn(C)cc1C(=O)N(C1CC1)S(=O)(=O)c1ccc(Oc2ccc(C)cc2)c(O)c1` [Compound 542], the chromatographic logP in series [1] (setting [5]) was determined as 4.3. In addition, the pest or weed control at 500 ppm (in the series on Puccinia recondita; in the series with Pyrenophora teres; in series [2]) was no less than 70% throughout.
For `Cc1nn(C)c(F)c1C(=O)N(C1CC1)S(=O)(=O)c1ccc(F)cc1` [Compound 179], the chromatographic logP in series [1] (setting [3]) is 2.46. The compound further had a pest or weed control at 500 ppm in the series on Alternaria solani of no less than 70%.
In series [1] (setting [4]), `CCc1nn(C)c(F)c1C(=O)N(C1CC1)S(=O)(=O)c1ccc(C(F)(F)F)cc1Br` [Compound 375] gave a chromatographic logP of 3.6. Besides, the pest or weed control at 500 ppm (with Pyrenophora teres; in series [2]) was no less than 70% each time.
In the case of `Cn1nc(C(F)(F)F)c(C(=O)N(C2CC2)S(=O)(=O)c2c(O)sc(O)c2Br)c1F` [Compound 436], the chromatographic logP in series [1] (setting [5]) worked out at 3.9. The compound also registered a pest or weed control at 500 ppm in the series on Pyrenophora teres of no less than 70%.
As for `COc1nn(C)cc1C(=O)N(C1CC1)S(=O)(=O)c1ccc(Sc2ccccc2)cc1` [Compound 266, N-cyclopropyl-3-methoxy-1-methyl-N-{[4-(phenylthio)phenyl]sulfonyl}-1H-pyrazole-4-carboxamide], the pest or weed control at 500 ppm in the series with Puccinia recondita and in the series on Pyrenophora teres was no less than 70% throughout.
For the compound `Cc1cccc(S(=O)(=O)N(C(=O)c2c(C)nn(C)c2F)C2CC2)c1` [Compound 175], in series [1] (setting [3]), the chromatographic logP was 2.61. In addition, in the series on Alternaria solani, the pest or weed control at 500 ppm is no less than 70%.
On to `COc1nn(C)cc1C(=O)N(C1CC1)S(=O)(=O)c1ccc(Oc2ccc(Br)cc2)cc1` [Compound 269], for which the pest or weed control at 500 ppm in the series with Puccinia recondita and in the series on Pyrenophora teres was no less than 70% each time.
What is called LogP is a log measure of how a compound divides between an organic and an aqueous phase. Regarding `Cc1nn(C)cc1C(=O)N(C1CC1)S(=O)(=O)c1ccccc1O` [Compound 214], in series [1] (setting [3]), the LogP is listed as 2.31. Also, the pest or weed control at 500 ppm with Alternaria solani is no less than 70%.
`Cc1nn(C)c(F)c1C(=O)N(C1CC1)S(=O)(=O)c1ccc2c(c1)CCC(C)(C)O2` [Compound 456]: the pest or weed control at 500 ppm (in the series on Puccinia recondita; in the series on Pyrenophora teres; in series [2]) was no less than 70% each time.
Consider `CCc1nn(C)c(F)c1C(=O)N(C1CC1)S(=O)(=O)c1c(O)cc(C(F)(F)F)cc1O` [Compound 387], for which the chromatographic logP in series [1] (setting [4]) stood at 3.8. Besides, the pest or weed control at 500 ppm (in the series on Pyrenophora teres; in series [2]) was no less than 70% throughout.
With `Cc1cc(C)c(S(=O)(=O)N(C(=O)c2c(C)nn(C)c2F)C2CC2)c(C)c1` [Compound 189], in series [1] (setting [3]), the chromatographic logP turned out to be 3.05. Moreover, the pest or weed control at 500 ppm in the series on Alternaria solani was no less than 70%.
`CCOc1nn(C)cc1C(=O)N(C1CC1)S(=O)(=O)c1ccc(Oc2cccc(O)c2)c(O)c1` [Compound 546] yielded a chromatographic logP in series [1] (setting [5]) of 4.3. In addition, the pest or weed control at 500 ppm in the series on Puccinia recondita and in the series on Pyrenophora teres was no less than 70% throughout.
Consider `COc1nn(C)cc1C(=O)N(C1CC1)S(=O)(=O)c1c(O)cc(C(F)(F)F)cc1O` [Compound 396], for which the chromatographic logP in series [1] (setting [4]) amounted to 3. The compound also came in with a pest or weed control at 500 ppm in the series with Pyrenophora teres of no less than 70%.
Turning to `COc1nn(C)cc1C(=O)N(C1CC1)S(=O)(=O)c1ccc(-c2cccc3ccccc23)cc1` [Compound 258], the pest or weed control at 500 ppm (in the series on Pyrenophora teres; in series [2]) was no less than 70% in each case.

(Values after patent publication US7932283B2, “Fungicide N-cyclopropyl-sulfonylamide derivatives” (Bayer Cropscience AG, priority 2006, dated 2011).)
